# Measured values reported in ChEMBL document CHEMBL4138123, “Design, synthesis and biological evaluation of novel pyrazolochalcones as potential modulators of PI3K/Akt/mTOR pathway and inducers of apoptosis in breast cancer cells” (Eur J Med Chem, 2017).
# Columns and labels:
# [1] = test system: MDA-MB-435; assay: Cytotoxicity against human MDA-MB-435 cells assessed as cell growth at 0.1 uM after 48 hrs by sulforhodamine B assay relative to control; format: functional; settings: MDA-MB-435, 48 h, read-out: Activity
# [2] = test system: NCI-H522; assay: Cytotoxicity against human NCI-H522 cells assessed as cell growth at 0.01 uM after 48 hrs by sulforhodamine B assay relative to control; format: functional; settings: NCI-H522, 48 h, read-out: Activity
# [3] = test system: NCI-H23; assay: Cytotoxicity against human NCI-H23 cells assessed as cell growth at 0.1 uM after 48 hrs by sulforhodamine B assay relative to control; format: functional; settings: NCI-H23, 48 h, read-out: Activity
# [4] = test system: SNB-19; assay: Cytotoxicity against human SNB19 cells assessed as growth inhibition after 48 hrs by sulforhodamine B assay; format: functional; settings: SNB-19, 48 h; for CC50: read-out: LC50 (the source's name)
# [5] = test system: CCRF-CEM; assay: Cytotoxicity against human CCRF-CEM cells assessed as cell growth at 0.1 uM after 48 hrs by sulforhodamine B assay relative to control; format: functional; settings: read-out: Activity
# [6] = test system: DU-145; assay: Cytotoxicity against human DU145 cells assessed as cell growth at 1 uM after 48 hrs by sulforhodamine B assay relative to control; format: functional; settings: DU-145, 48 h, read-out: Activity
# [7] = test system: NCI-H23; assay: Cytotoxicity against human NCI-H23 cells assessed as cell growth at 0.01 uM after 48 hrs by sulforhodamine B assay relative to control; format: functional; settings: NCI-H23, 48 h, read-out: Activity
# [8] = test system: SF-268; assay: Cytotoxicity against human SF268 cells assessed as cell growth at 0.1 uM after 48 hrs by sulforhodamine B assay relative to control; format: functional; settings: SF-268, 48 h, read-out: Activity
# [9] = test system: CCRF-CEM; assay: Cytotoxicity against human CCRF-CEM cells assessed as cell growth at 10 uM after 48 hrs by sulforhodamine B assay relative to control; format: functional; settings: read-out: Activity
# [10] = test system: KM12; assay: Cytotoxicity against human KM12 cells assessed as cell growth at 100 uM after 48 hrs by sulforhodamine B assay relative to control; format: functional; settings: KM12, 48 h, read-out: Activity
# [11] = test system: Malme-3M; assay: Cytotoxicity against human MALME-3M cells assessed as cell growth at 0.1 uM after 48 hrs by sulforhodamine B assay relative to control; format: functional; settings: read-out: Activity
# [12] = test system: A549; assay: Cytotoxicity against human A549/ATCC cells assessed as cell growth at 0.01 uM after 48 hrs by sulforhodamine B assay relative to control; format: functional; settings: A549, 48 h, read-out: Activity
# [13] = test system: KM12; assay: Cytotoxicity against human KM12 cells assessed as cell growth at 0.1 uM after 48 hrs by sulforhodamine B assay relative to control; format: functional; settings: KM12, 48 h, read-out: Activity
# [14] = test system: A498; assay: Cytotoxicity against human A498 cells assessed as cell growth at 100 uM after 48 hrs by sulforhodamine B assay relative to control; format: functional; settings: A498, 48 h, read-out: Activity
# [15] = test system: NCI/ADR-RES; assay: Cytotoxicity against human NCI/ADR-RES cells assessed as cell growth at 0.01 uM after 48 hrs by sulforhodamine B assay relative to control; format: functional; settings: read-out: Activity
# [16] = test system: UO-31; assay: Cytotoxicity against human UO31 cells assessed as growth inhibition after 48 hrs by sulforhodamine B assay; format: functional; settings: UO-31, 48 h
# [17] = test system: KM12; assay: Cytotoxicity against human KM12 cells assessed as cell growth at 0.01 uM after 48 hrs by sulforhodamine B assay relative to control; format: functional; settings: KM12, 48 h, read-out: Activity
# [18] = test system: PC-3; assay: Cytotoxicity against human PC3 cells assessed as cell growth at 1 uM after 48 hrs by sulforhodamine B assay relative to control; format: functional; settings: PC-3, 48 h, read-out: Activity
# [19] = test system: UACC-62; assay: Cytotoxicity against human UACC62 cells assessed as cell growth at 0.1 uM after 48 hrs by sulforhodamine B assay relative to control; format: functional; settings: UACC-62, 48 h, read-out: Activity
# [20] = test system: SR; assay: Cytotoxicity against human SR cells assessed as cell growth at 0.01 uM after 48 hrs by sulforhodamine B assay relative to control; format: functional; settings: read-out: Activity
# [21] = test system: MCF7; assay: Cytotoxicity against human MCF7 cells assessed as growth inhibition after 48 hrs by MTT assay; format: functional, cell-based; settings: MCF7, 48 h
# [22] = test system: K562; assay: Cytotoxicity against human K562 cells assessed as cell growth at 1 uM after 48 hrs by sulforhodamine B assay relative to control; format: functional; settings: K562, 48 h, read-out: Activity
# [23] = test system: SF-268; assay: Cytotoxicity against human SF268 cells assessed as cell growth at 10 uM after 48 hrs by sulforhodamine B assay relative to control; format: functional; settings: SF-268, 48 h, read-out: Activity
# [24] = test system: MDA-MB-231; assay: Cytotoxicity against human MDA-MB-231 cells assessed as cell growth at 10 uM after 48 hrs by sulforhodamine B assay relative to control; format: functional; settings: MDA-MB-231, 48 h, read-out: Activity
# [25] = test system: A549; assay: Cytotoxicity against human A549/ATCC cells assessed as cell growth at 1 uM after 48 hrs by sulforhodamine B assay relative to control; format: functional; settings: A549, 48 h, read-out: Activity
# [26] = test system: HOP-62; assay: Cytotoxicity against human HOP62 cells assessed as cell growth at 0.01 uM after 48 hrs by sulforhodamine B assay relative to control; format: functional; settings: HOP-62, 48 h, read-out: Activity
# [27] = test system: A498; assay: Cytotoxicity against human A498 cells assessed as growth inhibition after 48 hrs by sulforhodamine B assay; format: functional; settings: A498, 48 h
# [28] = test system: SR; assay: Cytotoxicity against human SR cells assessed as cell growth at 10 uM after 48 hrs by sulforhodamine B assay relative to control; format: functional; settings: read-out: Activity
# [29] = test system: HOP-62; assay: Cytotoxicity against human HOP62 cells assessed as cell growth at 100 uM after 48 hrs by sulforhodamine B assay relative to control; format: functional; settings: HOP-62, 48 h, read-out: Activity
# [30] = test system: UACC-62; assay: Cytotoxicity against human UACC62 cells assessed as cell growth at 1 uM after 48 hrs by sulforhodamine B assay relative to control; format: functional; settings: UACC-62, 48 h, read-out: Activity
# [31] = test system: NCI-H226; assay: Cytotoxicity against human NCI-H226 cells assessed as cell growth at 0.01 uM after 48 hrs by sulforhodamine B assay relative to control; format: functional; settings: NCI-H226, 48 h, read-out: Activity
# [32] = test system: TK-10; assay: Cytotoxicity against human TK10 cells assessed as cell growth at 0.01 uM after 48 hrs by sulforhodamine B assay relative to control; format: functional; settings: TK-10, 48 h, read-out: Activity
# [33] = test system: U-251; assay: Cytotoxicity against human U251 cells assessed as growth inhibition after 48 hrs by sulforhodamine B assay; format: functional; settings: U-251, 48 h
# [34] = test system: MDA-MB-231; assay: Cytotoxicity against human MDA-MB-231 cells assessed as cell growth at 0.1 uM after 48 hrs by sulforhodamine B assay relative to control; format: functional; settings: MDA-MB-231, 48 h, read-out: Activity
# [35] = test system: Hs-578T; assay: Cytotoxicity against human Hs 578T cells assessed as cell growth at 0.01 uM after 48 hrs by sulforhodamine B assay relative to control; format: functional; settings: read-out: Activity
# [36] = test system: NCI-H460; assay: Cytotoxicity against human NCI-H460 cells assessed as cell growth at 0.01 uM after 48 hrs by sulforhodamine B assay relative to control; format: functional; settings: NCI-H460, 48 h, read-out: Activity
# [37] = test system: NCI/ADR-RES; assay: Cytotoxicity against human NCI/ADR-RES cells assessed as cell growth at 0.1 uM after 48 hrs by sulforhodamine B assay relative to control; format: functional; settings: read-out: Activity
structure (smiles),measurement,setting,value
COc1ccc(-c2cc(/C=C/C(=O)c3ccc(N)cc3)[nH]n2)cc1,growth at 0.1 µM,[1],103%
same,growth at 0.01 µM,[2],84%
same,growth at 0.1 µM,[3],94%
same,GI50,[4],2.29 µM
same,TGI,[4],11.6 µM
same,CC50,[4],44.3 µM
same,growth at 0.1 µM,[5],98%
same,growth at 1 µM,[6],64%
same,growth at 0.01 µM,[7],92%
same,growth at 0.1 µM,[8],93%
same,growth at 10 µM,[9],-27%
same,growth at 100 µM,[10],-78%
same,growth at 0.1 µM,[11],86%
same,growth at 0.01 µM,[12],101%
same,growth at 0.1 µM,[13],97%
same,growth at 100 µM,[14],-96%
same,growth at 0.01 µM,[15],101%
same,GI50,[16],1.18 µM
same,LC50,[16],5.54 µM
same,TGI,[16],2.56 µM
same,growth at 0.01 µM,[17],96%
same,growth at 1 µM,[18],81%
same,growth at 0.1 µM,[19],97%
same,growth at 0.01 µM,[20],94%
same,IC50,[21],0.8 µM
same,growth at 1 µM,[22],58%
same,growth at 10 µM,[23],-29%
same,growth at 10 µM,[24],-7%
same,growth at 1 µM,[25],84%
same,growth at 0.01 µM,[26],107%
same,GI50,[27],2.03 µM
same,LC50,[27],15.4 µM
same,TGI,[27],4.95 µM
same,growth at 10 µM,[28],-12%
same,growth at 100 µM,[29],-60%
same,growth at 1 µM,[30],79%
same,growth at 0.01 µM,[31],102%
same,growth at 0.01 µM,[32],93%
same,GI50,[33],1.24 µM
same,LC50,[33],5.3 µM
same,TGI,[33],2.57 µM
same,growth at 0.1 µM,[34],89%
same,growth at 0.01 µM,[35],98%
same,growth at 0.01 µM,[36],101%
same,growth at 0.1 µM,[37],99%
COc1cc(-c2cc(/C=C/C(=O)c3ccc4c(c3)OCO4)[nH]n2)cc(OC)c1OC,growth at 0.1 µM,[1],94%
same,growth at 0.01 µM,[2],87%
same,growth at 0.1 µM,[3],93%
same,TGI,[4],> 100 µM
same,CC50,[4],> 100 µM
same,growth at 0.1 µM,[5],90%
same,growth at 1 µM,[6],90%
same,growth at 0.01 µM,[7],96%
same,growth at 0.1 µM,[8],90%
same,growth at 10 µM,[9],-19%
same,growth at 100 µM,[10],3%
same,growth at 0.1 µM,[11],91%
same,growth at 0.01 µM,[12],101%
same,growth at 0.1 µM,[13],95%
same,growth at 100 µM,[14],-38%
same,growth at 0.01 µM,[15],96%
same,LC50,[16],26.3 µM
same,TGI,[16],5.44 µM
same,growth at 0.01 µM,[17],96%
same,growth at 1 µM,[18],86%
same,growth at 0.1 µM,[19],96%
same,growth at 0.01 µM,[20],106%
same,IC50,[21],0.9 µM
same,growth at 1 µM,[22],102%
same,growth at 10 µM,[23],5%
same,growth at 10 µM,[24],20%
same,growth at 1 µM,[25],92%
same,growth at 0.01 µM,[26],101%
same,LC50,[27],> 100 µM
same,TGI,[27],15.4 µM
same,growth at 10 µM,[28],6%
same,growth at 100 µM,[29],-70%
same,growth at 1 µM,[30],99%
same,growth at 0.01 µM,[31],97%
same,growth at 0.01 µM,[32],89%
same,LC50,[33],59.5 µM
same,TGI,[33],5.45 µM
same,growth at 0.1 µM,[34],103%
same,growth at 0.01 µM,[35],93%
same,growth at 0.01 µM,[36],104%
same,growth at 0.1 µM,[37],95%
